Type: physicochemical
Conditions: for GC purity after storage / acid number after storage / odor after storage / appearance after storage: after storage for 39 months in a closed glass jar
From the text: Precipitation according to the method of the invention provides menthyl lactate having improved stability compared with that of an unprecipitated sample. By “improved stability,” we mean that one or more important physical properties of the menthyl lactate becomes more constant as a function of time as a consequence of precipitation when compared with menthyl lactate that has not been precipitated according to the method. Important physical properties include, without limitation, appearance, dimensional stability, color, texture, organoleptic properties (odor, flavor), melting point, acid number, GC purity, optical rotation, pH, solubility, and the like. Preferably, the ML retains its desirable physical property or properties even after prolonged storage. “Prolonged” depends on the particular application, but it is preferably at least one week, more preferably at least one month, and most preferably at least one year.
After storage for 39 months in a closed glass jar, the product is evaluated for quality.
A sample of solid menthyl lactate from the same batch that was used in Example 1 is stored under similar conditions for the same 39 months. […] Mp: 39.3° C.; GC purity: <96%; acid number: 32 mg KOH/g.

Row | Compound | melting point after storage | GC purity after storage | acid number after storage | odor after storage | appearance after storage
1 | CC1CCC(C(C)C)C(OC(=O)C(C)O)C1 (stereo not drawn) [compound 2, menthyl lactate] | 39.3 °C | < 96% | 32 mg KOH/g | strong, pungent acidic odor | –
2 | CC1CCC(C(C)C)C(OC(=O)C(C)O)C1 (stereo not drawn) [Comparative Example 4, menthyl lactate] | 43.6 °C | – | 0.27 mg KOH/g | some deterioration of odor quality | –

Now from value to molecule:

Row | melting point after storage | GC purity after storage | acid number after storage | odor after storage | appearance after storage | Compound
3 | 43.7 °C | 97% | 0.32 mg KOH/g | strong, pungent acidic odor | – | CC1CCC(C(C)C)C(OC(=O)C(C)O)C1 (stereo not drawn) [compound 5, menthyl lactate]
4 | 36.7 °C | 92% | 20 mg KOH/g | strong, pungent acidic odor | shrinks | CC1CCC(C(C)C)C(OC(=O)C(C)O)C1 (stereo not drawn) [Comparative Example 3, menthyl lactate]
5 | 43.9 °C | ≥ 99.8% | 0.15 mg KOH/g | faint, minty | fine, white crystalline powder | CC1CCC(C(C)C)C(OC(=O)C(C)O)C1 (stereo not drawn) [Example 1, menthyl lactate]

Source: US7655816B2, “Method for stabilizing menthyl lactate” (Millennium Specialty Chemicals, priority 2007, dated 2010)
